Entries after “also recorded” stand apart in the source; their conditions may differ.
How the values were obtained:
[1] = system: human ovarian cancer xenografts; assay: Small subcutaneous human ovarian cancer xenograft in SCID mice, cisplatin on day 0 and 7, tumor growth curves; format: in vivo, CB 17-SCID/SCID mice; settings: subcutaneous tumor nodules; cisplatin 5 mg/kg ip day 0 and 7; EPO 20 units sc three times per week day −15 to +13; to day +15; FIG. 1
Method: In another illustration of this embodiment, cisplatin was administered twice during the treatment. In additional forty experimental mice at six weeks of age, 2 mm portions of human ovarian cancer xenografts were implanted. Treatment groups were randomly assigned three days after implantation. Group I animals (controls) received 100 μl of PBS three times per week subcutaneously from day −15 to day +13 and 300 μl PBS ip on day 0 and 7. Mice in Group II (EPO group) received EPO subcutaneously at a dose of 20 units in 100 μl of PBS three times per week from day −15 to day +13 and 300 μl of PBS ip on day 0 and 7. Mice in Group III (cisplatin group) received cisplatin ip at a dose of 5 mg/kg in 300 μl of PBS on day 0 and 7, and 100 μl of subcutaneous PBS three times per week from day −15 to day +13. […]
Automated hematocrits were obtained as described above on days −15, −7, 0, +7, and +14. […] Tumor volumes were calculated on days 0, +1, +3, +5, +7, +9, +11, +13 and +15 using the formula. […]
(§1) Percent tumor growth was calculated for each index day compared to day 0 and plotted over time. […] The growth curves developed in the smaller subcutaneous tumor group and the curves representing change in the hematocrit over time were analyzed by analysis of variance. […]

[2] = system: human ovarian cancer xenografts (papillary serous adenocarcinoma of the ovary); assay: Large gonadal fat pad (GFP) human ovarian cancer xenograft in SCID mice, single cisplatin dose, tumor growth; format: in vivo, CB 17-SCID/SCID mice; settings: large GFP tumors; cisplatin 5 mg/kg ip day 0; EPO 20 units sc three times per week day −15 to +6; necropsy day 7
Method: To illustrate this embodiment, experiments were carried out in immunodeficient SCID mice bearing human ovarian cancer.
Eighty CB 17-SCID/SCID mice (Taconic Labs) were used. The animals were kept under sterile and light-controlled conditions. Portions of tumors from patients with recurrent stage IIIC, grade 3, papillary serous adenocarcinoma of the ovary were implanted and propagated in SCID mice by procedures well known to those skilled in the art. Briefly, xenografts were grown and passaged at least five times prior to the implantation of tumors into experimental animals. […]
Automated hematocrits were obtained from tail bleeds performed on three mice selected randomly from each group on days −15, −7, 0, and +7. […] Tumors were excised and measured in three dimensions with vernier calipers. Tumor volume was calculated as follows. […]
The percent growth of the tumor was calculated using the formula: […]
as §1

[3] = in vivo; cited from earlier work
[4] = Performance status (morbidity/mortality criteria) of treated tumor-bearing mice; format: in vivo, CB 17-SCID/SCID mice; parameters: key to Performance status score, individual mice: A grade of 0 equaled normal health; a grade of 5+ equaled death; settings: for Performance status score, individual mice: mouse no. 1-10, Table 2 (counts match day +14)
Method: To illustrate this embodiment, performance status of mice from Example 1 receiving the various treatments was evaluated. Performance status was assessed on days 0, +7, and +14 using five objective criteria associated with morbidity and mortality in experimental mice. The five criteria were (1) ruffled fur; (2) weakness/lethargy; (3) 20% weight loss compared to the mean weight of control animals; (4) kyphotic hunched posturing; and (5) death. A grade of 0 equaled normal health and a grade of 5+ equaled death.

[5] = Automated hematocrits from tail bleeds of tumor-bearing SCID mice; format: in vivo, CB 17-SCID/SCID mice; parameters: Hematocrits: unit not given here; settings: for Hematocrits: mice bearing small subcutaneous tumors
Method: Automated hematocrits were obtained from tail bleeds performed on three mice selected randomly from each group on days −15, −7, 0, and +7. No mouse was bled twice. On day 7, mice were sacrificed and necropsies were performed. Tumors were excised and measured in three dimensions with vernier calipers. Tumor volume was calculated as follows.
In another illustration of this embodiment, cisplatin was administered twice during the treatment. In additional forty experimental mice at six weeks of age, 2 mm portions of human ovarian cancer xenografts were implanted. Treatment groups were randomly assigned three days after implantation. Group I animals (controls) received 100 μl of PBS three times per week subcutaneously from day −15 to day +13 and 300 μl PBS ip on day 0 and 7. Mice in Group II (EPO group) received EPO subcutaneously at a dose of 20 units in 100 μl of PBS three times per week from day −15 to day +13 and 300 μl of PBS ip on day 0 and 7. Mice in Group III (cisplatin group) received cisplatin ip at a dose of 5 mg/kg in 300 μl of PBS on day 0 and 7, and 100 μl of subcutaneous PBS three times per week from day −15 to day +13. Mice in Group IV (EPO+cisplatin group) received subcutaneous EPO injections as in group 2 three times per week from day −15 to day +13 and ip cisplatin injections as in group 3 on day 0 and 7. Mice were observed until day +15.
Automated hematocrits were obtained as described above on days −15, −7, 0, +7, and +14. The change in hematocrit relative to the initial hematocrit was plotted over time. Serial measurements of tumor nodules were made in two dimensions using vernier calipers starting on day zero. On day zero, tumors had grown to approximately 4 mm×5 mm in size in each group. Tumor volumes were calculated on days 0, +1, +3, +5, +7, +9, +11, +13 and +15 using the formula.
Percent tumor growth was calculated for each index day compared to day 0 and plotted over time. Statistical analysis included Student T tests for the overall tumor growth in the large GFP tumor experiment. The growth curves developed in the smaller subcutaneous tumor group and the curves representing change in the hematocrit over time were analyzed by analysis of variance. Significance was defined by P values less than 0.05.

| Compound | Tumor growth curves (percent tumor growth vs day 0) [1] | Tumor growth (percent tumor growth, tumor size at necropsy) [2] | Half life in the plasma [3] | Performance status scores ([4]; day +7, all mice of the group) | Performance status score, individual mice [4] | Performance status score, Total ([4]; sum over 10 mice, Table 2) | Hematocrits ([5]; Week 0) | Hematocrits ([5]; Week +1) | Hematocrits ([5]; Week +2) | Hematocrits ([5]; Week −1) | Hematocrits ([5]; Week −2 (initial value)) | Increase in the hematocrit compared to its initial value ([5]; vs week −2, p<0.01 vs controls, FIG. 2) | Mice with 20% weight loss compared to controls ([4]; day +7, 10 mice per group) | Mice with ruffled fur ([4]; day +7, 10 mice per group) | Mice with signs of weakness/lethargy ([4]; day +7, 10 mice per group) | Mice with hunched posturing ([4]; day +14, 10 mice per group) | Mortalities ([4]; day +14, 10 mice per group) | Decrease in the hematocrit ([5]; over time vs initial value, FIG. 2) |
| --- | --- | --- | --- | --- | --- | --- | --- | --- | --- | --- | --- | --- | --- | --- | --- | --- | --- | --- |
| EPO: erythropoietin, hormone regulating red blood cell production; used as hematocrit elevator | no difference was observed between the controls and the EPO group | No difference was observed between the controls and the EPO group | about 5 hours | zero | 0 | 0 | 48.9 ± 0.3 | 49.3 ± 0.3 | 53.6 ± 0.4 | 44.9 ± 0.2 | 39.5 ± 0.2 | 25-35% | – | – | – | – | – | – |
| N.N.[Cl][Pt][Cl] [CISPLATIN, cis-diamine dichloro platinum] | – | significant difference in the tumor growth was observed in the groups treated with and without cisplatin | – | – | + + +; also recorded: + + + +; also recorded: + + + + + | – | 39.8 ± 0.3 | 40.7 ± 0.1 | 33.1 ± 0.3 | 39.8 ± 0.2 | 39.8 ± 0.2 | – | 6 | all | all | 3 | 4 | 20% |
